# From US9526785B2, “Pharmaceuticals for oral delivery” (Enteris BioPharma, Inc., priority 2013, dated 2016)
# Where two headings read alike, the source gives them in different places.
# Test: Tigecycline plasma PK and % F after PO enteric-coated capsule in dogs
# Type: in vivo, Beagle dogs
# Details: female, beagle, dog, plasma, po; for concentration at 60 min / concentration at 75 min / concentration at 90 min / concentration at 120 min / concentration at 150 min / concentration at 180 min / concentration at 210 min / concentration at 240 min / concentration at 0 hr / concentration at 0.3 hr / concentration at 0.7 hr / concentration at 1 hr: Tigecycline Plasma Concentration; for concentration at 60 min / concentration at 75 min / concentration at 90 min / concentration at 120 min / concentration at 150 min / concentration at 180 min / concentration at 210 min / concentration at 240 min: SC424; for bioavailability: read-out: % F; for Tmax: read-out: Tmax (converted); for concentration at 0 hr / concentration at 0.3 hr / concentration at 0.7 hr / concentration at 1 hr: PO 30 mg unformulated enteric-coated capsule
# Method: Adult beagle dogs weighing approximately 9 to 15 kg were used in the study. […] Room temperature was set to be maintained between approximately 20±5° C. Relative humidity was monitored but not controlled.
# TEKLAD™ Certified Canine Diet was provided once daily in amounts (˜400 grams) appropriate for the size and age of the animals. Tap water was available ad libitum via automatic watering device or water bowls.
# Oral dosing of enteric-coated capsules was accomplished by administering them to the back of the dog's mouth, followed by a chase of 5 mL water to ensure swallowing.
# Water was provided ad libitum. […] Subsequently, each group of animals was dosed based on the protocol, i.e. either IV, or PO by capsule.
# Minocycline (VWR international) was used as an internal standard. Sample processing/clean-up of plasma samples was carried out offline by protein precipitation with acidified acetonitrile using 0.5% trifluoroacetic acid (TFA).
# The HPLC system consisted of Shimadzu SIL-HTc HPLC system equipped with dual Shimadzu LC-10ADvp isopumps, a Shimadzu CTO-10ASvp column temperature controller and a Shimadzu SPD-10Avp variable wavelength detector. […] Mobile phase A consisted of 23 mM phosphate buffer pH 2.5 with 4 mM 1-octanesulfonic acid, while mobile phase B consisting of 90% acetonitrile, 10% water, with 2 mM 1-octanesulfonic acid. […] The total runtime was 18 minutes per sample. The mobile phase flow rate was 1.2 mL/min. Detection was performed using the SPD-10Avp variable wavelength detector set at 350 nm, with a sensitivity of 0.001 aufs.
# The samples were then centrifuged under refrigeration at 13 k rpm for 5 minutes. The supernatant was taken and the liquid removed to dryness under nitrogen in a turbovap. The dried extract was reconstituted in 60 μL of mobile phase A and the suspension was further centrifuged at 5 k rpm for 5 minutes to pellet any insoluble matter. The resulting supernatant was then injected onto the LC.
# The unknown concentration in dog plasma samples was determined by interpolation of the peak area ratios of analyte:internal standard versus the ratio of their nominal concentrations into the regression line obtained from calibration standards spiked in pooled dog plasma. No regression weighting was used for the calculations. […] The calibration curve covered the range of 0.05 μg/mL to 5 μg/mL. […]
# The capsules were enterically coated using a standard preclinical protocol to 10% weight gain. Two studies were conducted.
# [1] = 15 mg, PO 15 mg enteric-coated capsule with 500 mg CA and 100 mg LLC, mean
# [2] = 15 mg, PO 15 mg unformulated enteric-coated capsule, individual dogs
# [3] = 15 mg, PO 15 mg unformulated enteric-coated capsule, mean
# [4] = 30 mg, 30 mg Formulated (500 mg CA, 100 mg LLC) enteric coated capsule, Study 2 (SC430), mean (% CV) excluding animal 5256
smiles,measurement,setting,value
CN(C)c1cc(NC(=O)CNC(C)(C)C)c(O)c2c1C[C@H]1C[C@H]3[C@H](N(C)C)C(O)=C(C(N)=O)C(=O)[C@@]3(O)C(O)=C1C2=O [Tigecycline],concentration at 60 min,[1],18.7 ng/mL
same,concentration at 60 min,[2],0 ng/mL
same,concentration at 60 min,[3],0 ng/mL
same,concentration at 75 min,[1],46.1 ng/mL
same,concentration at 75 min,[2],0 ng/mL
same,concentration at 75 min,[3],0 ng/mL
same,concentration at 90 min,[1],53.8 ng/mL
same,concentration at 90 min,[2],0 ng/mL
same,concentration at 90 min,[3],0 ng/mL
same,concentration at 120 min,[1],51.5 ng/mL
same,concentration at 120 min,[2],0 ng/mL
same,concentration at 120 min,[3],0 ng/mL
same,concentration at 150 min,[1],41.7 ng/mL
same,concentration at 150 min,[2],0 ng/mL
same,concentration at 150 min,[3],0 ng/mL
same,concentration at 180 min,[1],37.4 ng/mL
same,concentration at 180 min,[2],0 ng/mL
same,concentration at 180 min,[3],0 ng/mL
same,concentration at 210 min,[1],36.3 ng/mL
same,concentration at 210 min,[2],0 ng/mL
same,concentration at 210 min,[3],0 ng/mL
same,concentration at 240 min,[1],35.2 ng/mL
same,concentration at 240 min,[2],0 ng/mL
same,concentration at 240 min,[3],0 ng/mL
same,Cmax,"15 mg, target dose 15 mg, enterically coated capsule, read-out: Observed Mean Cmax",75.5 ng/mL
same,AUC(0-t),"15 mg, target dose 15 mg, enterically coated capsule, time scale adjusted to 4 hours, read-out: Observed AUC(0-t)",133 ng·h/mL
same,bioavailability,[4],14.9%
same,AUC(0-t),"30 mg, 30 mg Formulated (500 mg CA, 100 mg LLC) enteric coated capsule, Study 2 (SC430), mean (% CV) excluding animal 5256, read-out: AUC(0-t)",367 ng·h/mL
same,Cmax,"30 mg, 30 mg Formulated (500 mg CA, 100 mg LLC) enteric coated capsule, Study 2 (SC430), mean (% CV) excluding animal 5256, read-out: Cmax",121 ng/mL
same,Tmax,[4],1.58 h
same,bioavailability,"30 mg, 30 mg Unformulated enteric coated capsule, Study 2 (SC430)",0%
same,AUC(0-t),"30 mg, PO 30 mg enteric-coated capsule with 500 mg CA and 100 mg LLC ([…]), SC430, mean excluding animal 5256, read-out: AUC(0-t)",367 ng·h/mL
same,Cmax,"30 mg, PO 30 mg enteric-coated capsule with 500 mg CA and 100 mg LLC ([…]), SC430, mean excluding animal 5256, read-out: Cmax",121 ng/mL
same,Tmax,"30 mg, PO 30 mg enteric-coated capsule with 500 mg CA and 100 mg LLC ([…]), SC430, mean excluding animal 5256",1.6 h
same,bioavailability,"30 mg, PO 30 mg enteric-coated capsule with 500 mg CA and 100 mg LLC, SC430, calculated from IV PK data of SC431, mean excluding animal 5256",14.9%
same,bioavailability,"30 mg, PO 30 mg unformulated enteric-coated capsule ([…]), SC430, individual dogs",0%
same,bioavailability,"30 mg, PO 30 mg unformulated enteric-coated capsule ([…]), SC430, mean",0%
same,Tmax,"30 mg, Study 2 (SC430), 30 mg Formulated enteric coated capsule (500 mg citric acid, 100 mg LLC), oral, dogs, N=4 excluding animal 5256, mean (% CV)",1.58 h
same,bioavailability,"30 mg, Study 2 (SC430), 30 mg Unformulated enteric coated capsule (microcrystalline cellulose filler), oral, dogs, N=3, based on that study's IV arm",0%
same,concentration at 0 hr,"30 mg, SC430, individual dogs",0 ng/mL
same,concentration at 0 hr,"30 mg, SC430, mean",0 ng/mL
same,concentration at 0.3 hr,"30 mg, SC430, individual dogs",0 ng/mL
same,concentration at 0.3 hr,"30 mg, SC430, mean",0 ng/mL
same,concentration at 0.7 hr,"30 mg, SC430, individual dogs",0 ng/mL
same,concentration at 0.7 hr,"30 mg, SC430, mean",0 ng/mL
same,concentration at 1 hr,"30 mg, SC430, individual dogs",0 ng/mL
same,concentration at 1 hr,"30 mg, SC430, mean",0 ng/mL
